Assay results reported in ChEMBL document CHEMBL1156911 (Bioorg Med Chem, 2010).
Calls of active or inactive are those of the source. The calls are words filed in the database; no cut-off is given here.

How the values were obtained:
[1] = target: T1, 11-beta-hydroxysteroid dehydrogenase type 2 (Homo sapiens) (UniProt P80365); experiment: Inhibition of human recombinant 11beta-HSD2 expressed in HEK293 cells assessed as reduction of […] conversion at 20 uM by scintillation counting; format: cell-based
T1 sequence (whole entry): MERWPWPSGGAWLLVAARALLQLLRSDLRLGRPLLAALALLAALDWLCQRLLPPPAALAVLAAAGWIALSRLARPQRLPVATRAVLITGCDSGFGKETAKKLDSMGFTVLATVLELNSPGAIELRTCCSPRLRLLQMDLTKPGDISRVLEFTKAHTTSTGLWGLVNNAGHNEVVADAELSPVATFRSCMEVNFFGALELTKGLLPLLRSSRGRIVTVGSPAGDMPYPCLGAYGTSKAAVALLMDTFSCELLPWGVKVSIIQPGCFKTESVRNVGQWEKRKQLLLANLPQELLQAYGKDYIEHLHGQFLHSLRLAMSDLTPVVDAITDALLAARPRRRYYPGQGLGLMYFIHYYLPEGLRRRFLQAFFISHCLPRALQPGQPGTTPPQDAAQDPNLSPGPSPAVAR

[2] = target: T2, 11-beta-hydroxysteroid dehydrogenase 1 (Homo sapiens, UniProt P28845); experiment: Inhibition of human recombinant 11beta-HSD1 expressed in HEK293 cells assessed as reduction of cortisone to cortisol conversion by scintillation counting; format: cell-based
[3] = target: T1, 11-beta-hydroxysteroid dehydrogenase type 2 (Homo sapiens); experiment: Inhibition of human recombinant 11beta-HSD2 expressed in HEK293 cells assessed as reduction of […] conversion up to 20 uM by scintillation counting; format: cell-based
[4] = target: T2, 11-beta-hydroxysteroid dehydrogenase 1; experiment: Inhibition of human recombinant 11beta-HSD1 expressed in HEK293 cells assessed as reduction of cortisone to cortisol conversion at 20 uM by scintillation counting; format: cell-based
Target sequence in this assay (P28845 whole entry, looked up): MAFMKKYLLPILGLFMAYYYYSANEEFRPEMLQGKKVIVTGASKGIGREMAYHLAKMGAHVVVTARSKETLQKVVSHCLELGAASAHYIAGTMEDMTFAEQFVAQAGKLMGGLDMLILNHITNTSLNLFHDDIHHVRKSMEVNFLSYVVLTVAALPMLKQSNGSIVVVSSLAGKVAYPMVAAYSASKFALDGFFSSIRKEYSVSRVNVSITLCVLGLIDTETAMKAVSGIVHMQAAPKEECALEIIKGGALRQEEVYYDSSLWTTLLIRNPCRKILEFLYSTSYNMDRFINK

[5] = target: T2, 11-beta-hydroxysteroid dehydrogenase 1; conditions: HEK293, 4 uM
Target sequence in this assay (P28845 whole entry, looked up): as above
Description: Inhibition of human recombinant 11beta-HSD1 expressed in HEK293 cells assessed as partial reduction of cortisone to cortisol conversion at 4 uM by scintillation counting

[6] = target: T2, 11-beta-hydroxysteroid dehydrogenase 1; experiment: Inhibition of human recombinant 11beta-HSD1 expressed in HEK293 cells assessed as partial reduction of cortisone to cortisol conversion at 1.5 uM by scintillation counting; format: cell-based
Target sequence in this assay (P28845 whole entry, looked up): as above

[7] = target: T2, 11-beta-hydroxysteroid dehydrogenase 1; experiment: Inhibition of human recombinant 11beta-HSD1 expressed in HEK293 cells assessed as partial reduction of cortisone to cortisol conversion at 3 uM by scintillation counting; format: cell-based
Target sequence in this assay (P28845 whole entry, looked up): as above

SMILES | Activity [1] | IC50 ([2]; hek293) | also measured
C[C@@H]1CC[C@]2(C(=O)O)CC[C@]3(C)C(=CC[C@@H]4[C@@]5(C)C[C@@H](O)[C@H](OC(=O)/C=C\c6ccc(O)cc6)C(C)(C)[C@@H]5CC[C@]43C)[C@@H]2[C@]1(C)O | inactive | Not Active | 
C[C@@H]1CC[C@]2(C(=O)O)CC[C@]3(C)C(=CC[C@@H]4[C@@]5(C)C[C@@H](O)[C@H](O)C(C)(C)[C@@H]5CC[C@]43C)[C@@H]2[C@]1(C)O [TOMENTIC ACID] | inactive | Not Active | 
C[C@H]1[C@H](C)CC[C@]2(C(=O)O)CC[C@]3(C)C(=CC[C@@H]4[C@@]5(C)C[C@@H](O)[C@H](O)C(C)(C)[C@@H]5CC[C@]43C)[C@H]12 [COROSOLIC ACID] |  |  | inhibition [3]: inactive; inhibition [2]: Dose-dependent effect; IC50 ([2]; read-out: IC50): 0.81 µM
C[C@@H]1CC[C@]2(C(=O)O)CC[C@]3(C)C(=CC[C@@H]4[C@@]5(C)C[C@@H](O)[C@H](OC(=O)/C=C/c6ccc(O)cc6)C(C)(C)[C@@H]5CC[C@]43C)[C@@H]2[C@]1(C)O | inactive | Not Active | 
C[C@H](CC(=O)C[C@@H](C)[C@H]1C[C@H](O)[C@@]2(C)C3=C(C(=O)C[C@]12C)[C@@]1(C)CCC(=O)C(C)(C)[C@@H]1C[C@@H]3O)C(=O)O |  |  | inhibition [1]: 76%; inhibition [4]: 46%
CC(=O)O[C@@H]1CC[C@@]2(C)[C@@H](CC[C@]3(C)[C@@H]2C(=O)C=C2[C@@H]4[C@@H](C)[C@H](C)CC[C@]4(C)CC[C@]23C)[C@@]1(C)C(=O)O |  |  | inhibition [1]: 52%; inhibition [4]: 63%
COC(=O)[C@]12CC[C@@H](C)[C@H](C)[C@H]1C1=CC[C@@H]3[C@@]4(C)C[C@@H](O)[C@H](O)C(C)(C)[C@@H]4CC[C@@]3(C)[C@]1(C)CC2 [COROSOLIC ACID METHYL ESTER] | inactive | Not Active | 
COC(=O)[C@]12CC[C@@H](C)[C@@](C)(O)[C@H]1C1=CC[C@@H]3[C@@]4(C)C[C@@H](O)[C@H](O)C(C)(C)[C@@H]4CC[C@@]3(C)[C@]1(C)CC2 [TORMENTIC ACID METHYL ESTER] | inactive |  | inhibition [5]: Active; IC50 ([2]; read-out: IC50): 9.4 µM
COC(=O)[C@]12CC[C@@H](C)[C@H](C)[C@H]1C1=CC[C@@H]3[C@@]4(C)CC[C@H](O)C(C)(C)[C@@H]4CC[C@@]3(C)[C@]1(C)CC2 | inactive |  | 
COC(=O)[C@]12CC[C@@H](C)[C@H](C)[C@H]1C1=CC[C@@H]3[C@@]4(C)C[C@@H](O)[C@@H](O)C(C)(C)[C@@H]4CC[C@@]3(C)[C@]1(C)CC2 | inactive |  | IC50 ([2]; read-out: IC50): 5.2 µM
CC(=O)O[C@H]1CC[C@]2(C)[C@H]3C(=O)C=C4[C@@H]5[C@@H](C)[C@H](C)CC[C@]5(C(=O)O)CC[C@@]4(C)[C@]3(C)CC[C@H]2C1(C)C [11-OXOURSOLIC ACID ACETATE] |  |  | IC50 ([2]; read-out: IC50): 1.35 µM
C[C@H]1[C@H](C)CC[C@]2(C(=O)O)CC[C@]3(C)C(=CC(=O)[C@@H]4[C@@]5(C)CC[C@H](O)C(C)(C)[C@@H]5CC[C@]43C)[C@H]12 |  |  | IC50 ([2]; read-out: IC50): 2.06 µM
C[C@H]1[C@H](C)CC[C@]2(C)CC[C@]3(C)C(=CC(=O)[C@@H]4[C@@]5(C)CC[C@@H](O)[C@](C)(C(=O)O)[C@@H]5CC[C@]43C)[C@H]12 |  |  | inhibition [1]: 68%; inhibition [4]: 52%
CC[C@H](CC[C@@H](C)[C@H]1CC[C@H]2[C@@H]3CC=C4C[C@@H](O)CC[C@]4(C)[C@H]3CC[C@]12C)C(C)C | inactive |  | 
C[C@H]1[C@H](C)CC[C@]2(C(=O)O)CC[C@]3(C)C(=CC[C@@H]4[C@@]5(C)CC[C@H](O)C(C)(C)[C@@H]5CC[C@]43C)[C@H]12 | inactive |  | inhibition [6]: Active
C[C@H]1[C@H](C)CC[C@]2(CO)CC[C@]3(C)C(=CC[C@@H]4[C@@]5(C)CC[C@H](O)C(C)(C)[C@@H]5CC[C@]43C)[C@H]12 [UVAOL] | inactive | Not Active | 
COC(=O)[C@]12CCC(C)(C)C[C@H]1C1=CC[C@@H]3[C@@]4(C)C[C@@H](O)[C@H](O)C(C)(C)[C@@H]4CC[C@@]3(C)[C@]1(C)CC2 [MASLINIC ACID METHYL ESTER] | inactive | Not Active | 
C[C@H]1[C@H](C)CC[C@]2(C(=O)O)CC[C@]3(C)C(=CC[C@@H]4[C@@]5(C)C[C@@H](O)C(=O)C(C)(C)[C@@H]5CC[C@]43C)[C@H]12 | inactive |  | inhibition [7]: Active
